From ChEMBL document CHEMBL1143799, “Synthesis and primary cytotoxicity evaluation of new imidazo[2,1-b]thiazole derivatives” (2007)

Assays:
Assay type in all cases: functional
[1] = test system: MCF7; experiment: Cytotoxicity against human MCF7 cells assessed as growth at 100 uM after 48 hrs by SRB protein assay relative to control; conditions: MCF7, 48 h, read-out: Activity
[2] = test system: NCI-H460; experiment: Cytotoxicity against human […] cells assessed as growth at 100 uM after 48 hrs by SRB protein assay relative to control; conditions: NCI-H460, 48 h, read-out: Activity
[3] = test system: SF-268; experiment: Cytotoxicity against human SF268 cells assessed as growth at 100 uM after 48 hrs by SRB protein assay relative to control; conditions: SF-268, 48 h, read-out: Activity

Row | Compound | growth at 100 µM [1] | growth at 100 µM [2] | growth at 100 µM [3]
1 | O=C(Cc1csc2nc(-c3ccc(Br)cc3)cn12)N/N=C/c1ccc(F)cc1 | 71% | 35% | 84%
2 | COc1ccc(/C=N/NC(=O)Cc2csc3nc(-c4ccc(Br)cc4)cn23)cc1 | 46% | 34% | 56%
3 | O=C(Cc1csc2nc(-c3ccc(Br)cc3)cn12)N/N=C/c1ccc(Br)cc1 | 56% | 75% | 107%
4 | CN(C)c1ccc(/C=N/NC(=O)Cc2csc3nc(-c4ccc(Br)cc4)cn23)cc1 | 82% | 69% | 77%
